Measured values reported in article PMC5607274, “An iterative compound screening contest method for identifying target protein inhibitors using the tyrosine-protein kinase Yes” (Scientific Reports, 2017).

Molecular target: T1, human recombinant Yes [a.a. 2–543 (end)] (Homo sapiens, UniProt P07947)
T1 construct: human recombinant Yes [a.a; 2–543 (end)]; purchased BPS Bioscience 40488
Test: ADP-Glo kinase assay, inhibition rates of Yes phosphorylation activity (first and second screening)
Format: biochemical
Conditions: 10 μmol L−1 compound; for First screening IR (inhibition rate): mean of n = 4 wells; for Second screening IR (inhibition rate): dissolved from fresh powder, n = 4
In short: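 ADP-Glo luminescence measured inhibition of human recombinant Yes (a.a. 2–543) phosphorylation activity. In the first screen, each compound ran in 4 wells and inhibition rates were averaged. The second screen retested hits as compounds dissolved from fresh powder.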

T1 sequence (P07947 2-543): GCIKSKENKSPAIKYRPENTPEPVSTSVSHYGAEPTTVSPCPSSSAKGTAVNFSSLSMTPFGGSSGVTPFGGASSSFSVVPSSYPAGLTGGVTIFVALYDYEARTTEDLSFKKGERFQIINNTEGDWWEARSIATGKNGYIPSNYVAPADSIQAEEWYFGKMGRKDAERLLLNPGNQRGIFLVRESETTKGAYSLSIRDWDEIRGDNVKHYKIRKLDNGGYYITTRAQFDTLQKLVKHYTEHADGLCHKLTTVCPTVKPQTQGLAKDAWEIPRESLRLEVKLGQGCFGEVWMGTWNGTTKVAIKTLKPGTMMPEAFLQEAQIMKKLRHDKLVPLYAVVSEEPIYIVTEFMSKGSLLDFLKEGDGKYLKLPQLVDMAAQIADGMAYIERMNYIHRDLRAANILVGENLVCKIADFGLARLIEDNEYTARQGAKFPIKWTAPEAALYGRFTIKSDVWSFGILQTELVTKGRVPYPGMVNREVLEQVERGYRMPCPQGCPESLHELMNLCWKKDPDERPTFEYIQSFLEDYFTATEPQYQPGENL

SMILES | First screening IR (inhibition rate) | Second screening IR (inhibition rate)
CCN(CCNC(=O)CCN1CCN(c2ccccn2)CC1)c1ccccc1C [Compound Z1255568722] | 27% | 
CCc1cc(CNC(=O)NCc2ccc3cc(OC)ccc3c2)on1 [Compound Z1256754058] | -8% | 
CC(C)(C)Cc1cc(NC(=O)c2cnn(-c3ccccc3Cl)c2)n[nH]1 [Compound Z1262045135] | 70% | 21%
CC(C)CCc1nc(CN2C(=O)NC3(CCN(C(=O)OC(C)(C)C)CC3)C2=O)cs1 [Compound Z1262256786] | -2% | 
CCCCCNS(=O)(=O)CCS(C)(=O)=O [Compound Z1262455598] | -9% | 
CS1(=O)=NC=C(C(=O)O)C=C1 (centres unmarked) [Compound Z1262519784] | 52% | 
Cc1ccn2c(/C=C/C(=O)c3cccc(N4CCOC4=O)c3)cnc2c1 [Compound Z1263913876] | 44% | 
CN(C(=O)c1cccc(NC(=O)c2ccc(Br)o2)c1)c1ccc(C#N)cc1 [Compound Z1269414490] | -5% | 
CC1CC2CCCCC2N1c1ncnc2c1nnn2-c1ccccc1 (centres unmarked) [Compound Z1270084447] | 45% | 
Fc1ccc(-c2cc(-c3ccc(Cl)cc3)c3ccccc3n2)cc1 [Compound Z1270166647] | 43% | 
Cc1cc(S(=O)(=O)Nc2cc(-c3ccncc3)nn2C)ccc1Br [Compound Z1270579889] | 54% | 
CC1CCCC(C)N(S(=O)(=O)CCCS(C)(=O)=O)C1 (centres unmarked) [Compound Z1271251540] | 8% | 
CC1(C)CCCN(S(=O)(=O)CCCS(C)(=O)=O)CC1 [Compound Z1271277951] | -3% | 
COCCCCCn1ncc2ccc([N+](=O)[O-])cc21 [Compound Z1271542350] | 7% | 
CS(=O)(=O)C1CSCCN1S(=O)(=O)c1ccc(Br)cc1Cl (centres unmarked) [Compound Z1274438175] | -18% | 
CC(C)(C)n1cc(C(=O)NCc2ccc(-c3cccnc3)cc2)cn1 [Compound Z1276379731] | 5% | 
Cc1cccc(-c2nc(NC(=O)C3Cc4cc(F)ccc4O3)n[nH]2)n1 (centres unmarked) [Compound Z1279679753] | -4% | 
O=C(c1cc(Cc2ccccc2)ccc1O)N1CCN(Cc2ccon2)CC1 [Compound Z1285074692] | 21% | 
O=C(NS(=O)(=O)Cc1ccc(Cl)nc1)C1CCc2cn[nH]c2C1 (centres unmarked) [Compound Z1291253354] | -13% | 
COC(=O)c1cc(S(=O)(=O)Oc2ccc3c(C(C)C)cc(=O)oc3c2)cn1C [Compound Z1309300961] | 1% | 
Fc1ccc(-c2n[nH]c(CNc3cncc(Cl)n3)n2)cc1 [Compound Z1309541011] | -11% | 
CN1CCC(=O)Nc2cc(C(=O)N(C)C3CCCN(c4ccccc4)C3=O)ccc21 (centres unmarked) [Compound Z1315092412] | 16% | 

SMILES | First screening IR (inhibition rate) | Second screening IR (inhibition rate)
CC(C)(C)c1nccc(Nc2cn[nH]c2)n1 [Compound Z1317605702] | 42% | 7%
Cc1ccc(C(=O)Nc2ccc(OCc3ccccn3)c(F)c2)cn1 [Compound Z1318975474] | -2% | 
Cc1nc(N(C)C(C)c2ccc([S+](C)[O-])cc2)c2cnn(C)c2n1 (centres unmarked) [Compound Z1324037636] | 9% | 
CC(C)c1nc2n(n1)CC(NC(=O)Nc1cc(-c3ccccc3)ns1)CC2 (centres unmarked) [Compound Z1327803154] | 17% | 
CS(=O)(=O)N(C(=O)c1ccc(OC(F)(F)F)cc1)C1CCC(O)CC1 (centres unmarked) [Compound Z1328888966] | 2% | 
CC(Oc1ccc(N(C)C(N)=O)cc1)c1nnc(-c2cccc(Cl)c2)o1 (centres unmarked) [Compound Z1329202056] | -16% | 
CCCCNS(=O)(=O)C1=CCS(=O)(=O)C1 [Compound Z1342205464] | 9% | 
O=S1(=O)CC=C(S(=O)(=O)N2CCCC2)C1 [Compound Z1342206502] | 6% | 
Cc1cc(C)n(-c2cncc(NC(C)c3nnc4ccccn34)n2)n1 (centres unmarked) [Compound Z1343207103] | 5% | 
c1nc(N2CCCC2c2ccsc2)c2[nH]cnc2n1 (centres unmarked) [Compound Z1343239610] | 12% | 
Cc1ccccc1C1CCCN1c1ncnc2nc[nH]c12 (centres unmarked) [Compound Z1343261311] | 42% | 
Cc1c(C(=O)Nc2cnn(C)c2)c(=O)[nH]c2ccccc12 [Compound Z1343740230] | 23% | 
CC(C)S(=O)(=O)CCS(=O)(=O)Cc1ccc(Cl)cc1 [Compound Z1347350562] | -14% | 
CC(C)S(=O)(=O)CCS(=O)(=O)Cc1ccccc1 [Compound Z1347350572] | 2% | 
CC(C)S(=O)(=O)CCS(=O)(=O)C(C)c1ccc(F)cc1 (centres unmarked) [Compound Z1347351122] | 12% | 
CC(C)S(=O)(=O)CCS(=O)(=O)CC1CCCCC1 [Compound Z1347351162] | -3% | 
CC(C)S(=O)(=O)CCS(=O)(=O)c1cccc(Br)c1 [Compound Z1347351377] | -2% | 
O=C(OCc1ccc(-n2ccnc2)nc1)c1ccc([N+](=O)[O-])cc1 [Compound Z1352068858] | 7% | 
CC1(C)CN(c2nc(-c3ccncc3)nc3c2CCC3)CC[S+]1[O-] (centres unmarked) [Compound Z1396757600] | 8% | 
COC1(C)CC(N(C)C(=O)NC2CCCn3nc(C(C)C)nc32)C1(C)C (centres unmarked) [Compound Z1396774495] | -1% | 
CC1CN(c2nccnc2C#N)CCN1C(=O)c1cccc(OCc2ccc(F)cc2)c1 (centres unmarked) [Compound Z1401935735] | 35% | 
CCNC(=O)CN(CC)S(=O)(=O)c1cnn(-c2ccc(F)cc2)c1C [Compound Z1403244361] | 2% | 

SMILES | First screening IR (inhibition rate) | Second screening IR (inhibition rate)
CCC(C)CS(=O)(=O)N1CCS(=O)(=O)C(C)(C)C1 (centres unmarked) [Compound Z1403432995] | 11% | 
CN(C)c1nc2ccc(NC(=O)c3csc(-c4ccoc4)n3)cc2o1 [Compound Z1404550995] | 10% | 
Nc1ccnc(-c2cncs2)n1 [Compound Z1407063064] | -14% | 
COc1cccc(-c2cc(-c3ccccc3)c3cc(Br)ccc3n2)c1 [Compound Z1409331244] | -16% | 
CC(C)N(CC#N)S(=O)(=O)c1ccccc1S(C)(=O)=O [Compound Z1411146082] | -35% | 
Cc1cc(=O)[nH]c(C(C)Sc2ncn(-c3ccccc3)n2)n1 (centres unmarked) [Compound Z1415883225] | 34% | 
CCCN(Cc1cccnc1OC)C1CCN(C(=O)c2ccccc2)CC1 [Compound Z1415907924] | 6% | 
Cc1nc(-c2ccc(C(=O)OCCCn3cccn3)cc2)n[nH]1 [Compound Z1417129003] | 10% | 
CNc1snc(C)c1C(=O)N1CCC(Oc2ccc(Cl)c(Cl)c2)C1 (centres unmarked) [Compound Z1417711005] | -7% | 
CN(C)c1ccc(-c2cncc(C(=O)NCC3CC=CCC3)c2)cc1 (centres unmarked) [Compound Z1418841673] | 21% | 
CC(Sc1ncc(CO)n1C)c1cn(-c2ccccc2)nn1 (centres unmarked) [Compound Z1419493384] | -8% | 
COC(=O)Cn1ncc2c(N3CCCCC3CCC(C)C)ncnc21 (centres unmarked) [Compound Z1419966801] | 1% | 
CCc1ccc(CNc2cccc(NC(=O)OCCOC)c2)o1 [Compound Z1420504830] | -7% | 
CCn1nc(NCc2cn[nH]c2-c2ccc(C)o2)cc1C1CC1 [Compound Z1421828757] | 13% | 
O=C(Nc1cc(-c2cccc(F)c2F)[nH]n1)c1ccc2nncn2c1 [Compound Z1423687928] | 11% | 
c1ccc(-c2cn(Cc3nc(-c4cccs4)no3)nn2)cc1 [Compound Z1425793872] | 13% | 
Cc1ccc(CNC(C)(CO)c2cccc(C(F)(F)F)c2)nc1 (centres unmarked) [Compound Z1426135114] | 10% | 
O=C(Nc1n[nH]c(-c2ccoc2)n1)c1cc(-c2ccc(F)cc2)on1 [Compound Z1426521974] | 4% | 
Cc1cc(NCc2cn3cccnc3n2)c(C(N)=O)cc1F [Compound Z1430011273] | 12% | 
Cc1cnn(-c2cccc(N3CCOC(c4ccc(F)cc4)C3)n2)c1 (centres unmarked) [Compound Z1430532131] | 0% | 
CC(C)c1nncn1CCNC(=O)C(c1cc(Cl)cc(Cl)c1)N(C)C (centres unmarked) [Compound Z1430823330] | 5% | 
O=C(c1cc(C2CC2)[nH]n1)N1CCC(=Cc2cc(Cl)ccc2Cl)CC1 [Compound Z1432870591] | 2% | 
